In brackets after ≈: the same amount, converted by molar mass. Activity calls are given as the source filed them. The calls are words filed in the database; no cut-off is given here.
Columns and labels:
Clostridioides difficile [1] = assay: Increase in toxin level in nonepidemic Clostridium difficile J29 infected CF1 mouse at 2 mg/day, sc for 4 days assessed after 2 days of last treatment; assay type: functional, organism-based
Clostridioides difficile [2] = assay: Increase in toxin level in nonepidemic Clostridium difficile J29 infected CF1 mouse at 1.4 mg/day, sc for 4 days assessed after 2 days of last treatment; assay type: functional, organism-based
Clostridioides difficile [3] = assay: Effect on growth of nonepidemic Clostridium difficile J29 in CF1 mouse assessed as increase in bacterial density in cecal content at 2 mg/day, sc for 4 days assessed after 2 days of last treatment; assay type: functional, organism-based
Clostridioides difficile [4] = assay: Antimicrobial activity against fluoroquinolone-susceptible nonepidemic Clostridium difficile strain6 by broth dilution method; assay type: functional
Clostridioides difficile [5] = assay: Antimicrobial activity against nonepidemic Clostridium difficile ATCC 9689 by broth dilution method; assay type: functional
Clostridioides difficile [6] = assay: Effect on growth of nonepidemic Clostridium difficile J29 in CF1 mouse assessed as increase in bacterial density in cecal content at 1.4 mg/day, sc for 4 days assessed after 2 days of last treatment; assay type: functional, organism-based
Clostridioides difficile [7] = assay: Antimicrobial activity against nonepidemic Clostridium difficile J29 by broth dilution method; assay type: functional
Clostridioides difficile [8] = assay: Antimicrobial activity against epidemic Clostridium difficile BI6-8-17 by broth dilution method; assay type: functional
Clostridioides difficile [9] = assay: Antimicrobial activity against epidemic Clostridium difficile BI9 by broth dilution method; assay type: functional
Clostridioides difficile [10] = assay: Increase in toxin level in epidemic Clostridium difficile BI6-8-17 infected CF1 mouse at 1.4 mg/day, sc for 4 days assessed after 2 days of last treatment; assay type: functional, organism-based
Clostridioides difficile [11] = assay: Increase in toxin level in epidemic Clostridium difficile BI6-8-17 infected CF1 mouse at 2 mg/day, sc for 4 days assessed after 2 days of last treatment; assay type: functional, organism-based
Clostridioides difficile [12] = assay: Increase in toxin level in nonepidemic Clostridium difficile J29 infected CF1 mouse at 0.2 mg/day, sc for 4 days assessed after 2 days of last treatment; assay type: functional, organism-based
Clostridioides difficile [13] = assay: Increase in toxin level in epidemic Clostridium difficile BI9 infected CF1 mouse at 2 mg/day, sc for 4 days assessed after 2 days of last treatment; assay type: functional, organism-based
Clostridioides difficile [14] = assay: Increase in toxin level in epidemic Clostridium difficile BI6-8-17 infected CF1 mouse at 0.2 mg/day, sc for 4 days assessed after 2 days of last treatment; assay type: functional, organism-based
Clostridioides difficile [15] = assay: Increase in toxin level in epidemic Clostridium difficile BI9 infected CF1 mouse at 0.2 mg/day, sc for 4 days assessed after 2 days of last treatment; assay type: functional, organism-based
Clostridioides difficile [16] = assay: Increase in toxin level in nonepidemic Clostridium difficile ATCC 9689 infected in CF1 mouse at 0.2 mg/day, sc for 4 days assessed after 2 days of last treatment; assay type: functional, organism-based
Clostridioides difficile [17] = assay: Effect on growth of fluoroquinolone-susceptible nonepidemic Clostridium difficile strain6 in CF1 mouse assessed as increase in bacterial density in cecal content at dosed sc for 5 days; assay type: functional, organism-based
Clostridioides difficile [18] = assay: Effect on growth of epidemic Clostridium difficile BI9 in CF1 mouse assessed as increase in bacterial density in cecal content at 1.4 mg/day, sc for 4 days assessed after 2 days of last treatment; assay type: functional, organism-based
Clostridioides difficile [19] = assay: Increase in toxin level in nonepidemic Clostridium difficile ATCC 9689 infected in CF1 mouse at 2 mg/day, sc for 4 days assessed after 2 days of last treatment; assay type: functional, organism-based
Clostridioides difficile [20] = assay: Increase in toxin level in nonepidemic Clostridium difficile ATCC 9689 infected in CF1 mouse at 1.4 mg/day, sc for 4 days assessed after 2 days of last treatment; assay type: functional, organism-based
Clostridioides difficile [21] = assay: Effect on growth of nonepidemic Clostridium difficile ATCC 9689 in CF1 mouse assessed as increase in bacterial density in cecal content at 1.4 mg/day, sc for 4 days assessed after 2 days of last treatment; assay type: functional, organism-based
Clostridioides difficile [22] = assay: Effect on growth of nonepidemic Clostridium difficile ATCC 9689 in CF1 mouse assessed as increase in bacterial density in cecal content at 2 mg/day, sc for 4 days assessed after 2 days of last treatment; assay type: functional, organism-based
Clostridioides difficile [23] = assay: Effect on growth of epidemic Clostridium difficile BI9 in CF1 mouse assessed as increase in bacterial density in cecal content at 2 mg/day, sc for 4 days assessed after 2 days of last treatment; assay type: functional, organism-based
Clostridioides difficile [24] = assay: Antimicrobial activity against fluoroquinolone-resistant epidemic Clostridium difficile NAP1 by broth dilution method; assay type: functional
Clostridioides difficile [25] = assay: Increase in toxin level in epidemic Clostridium difficile BI9 infected CF1 mouse at 1.4 mg/day, sc for 4 days assessed after 2 days of last treatment; assay type: functional, organism-based
Clostridioides difficile [26] = assay: Effect on growth of epidemic Clostridium difficile BI6-8-17 in CF1 mouse assessed as increase in bacterial density in cecal content at 2 mg/day, sc for 4 days assessed after 2 days of last treatment; assay type: functional, organism-based
Clostridioides difficile [27] = assay: Effect on growth of epidemic Clostridium difficile BI6-8-17 in CF1 mouse assessed as increase in bacterial density in cecal content at 1.4 mg/day, sc for 4 days assessed after 2 days of last treatment; assay type: functional, organism-based
Clostridioides difficile [28] = assay: Inhibition of clindamycin-susceptible nonepidemic Clostridium difficile strain6 in CF1 mouse at 0.2 mg/day, sc for 5 days; assay type: functional, organism-based
Clostridioides difficile [29] = assay: Inhibition of clindamycin-susceptible nonepidemic Clostridium difficile strain6 in CF1 mouse at 0.2 mg/day, sc for 5 days assessed after 2 days of last treatment; assay type: functional, organism-based
Clostridioides difficile [30] = assay: Inhibition of clindamycin-susceptible epidemic Clostridium difficile NAP1 in CF1 mouse at 0.2 mg/day, sc for 5 days assessed after 2 days of last treatment; assay type: functional, organism-based
Clostridioides difficile [31] = assay: Inhibition of clindamycin-susceptible epidemic Clostridium difficile NAP1 in CF1 mouse at 0.2 mg/day, sc for 5 days; assay type: functional, organism-based
Clostridioides difficile [32] = assay: Effect on growth of epidemic Clostridium difficile BI9 in CF1 mouse assessed as increase in bacterial density in cecal content at 0.4 mg/day, sc for 4 days assessed after 2 days of last treatment; assay type: functional, organism-based
[33] = Drug level in Clostridium difficile infected CF1 mouse stool at 0.2 mg/day for 4 days; assay type: ADME; conditions: read-out: Drug uptake
[34] = Drug level in Clostridium difficile infected CF1 mouse stool at 0.375 mg/day for 4 days; assay type: ADME; conditions: read-out: Drug uptake

| SMILES | Activity (Clostridioides difficile [1]) | Activity (Clostridioides difficile [2]) | Activity (Clostridioides difficile [3]) | MIC (Clostridioides difficile [4]) [µg/mL] | MIC (Clostridioides difficile [5]) [µg/mL] | Activity (Clostridioides difficile [6]) | MIC (Clostridioides difficile [7]) [µg/mL] | MIC (Clostridioides difficile [8]) [µg/mL] | MIC (Clostridioides difficile [9]) [µg/mL] | Activity (Clostridioides difficile [10]) | Activity (Clostridioides difficile [11]) | Activity (Clostridioides difficile [12]) | Activity (Clostridioides difficile [13]) | Activity (Clostridioides difficile [14]) | Activity (Clostridioides difficile [15]) | Activity (Clostridioides difficile [16]) | Activity (Clostridioides difficile [19]) | Activity (Clostridioides difficile [20]) | MIC (Clostridioides difficile [24]) [µg/mL] | Activity (Clostridioides difficile [25]) | further results |
| --- | --- | --- | --- | --- | --- | --- | --- | --- | --- | --- | --- | --- | --- | --- | --- | --- | --- | --- | --- | --- | --- |
| CO/N=C(\C(=O)N[C@@H]1C(=O)N2C(C(=O)O)=C(CSc3nc(=O)c(O)nn3C)CS[C@H]12)c1csc(N)n1 [CEFTRIAXONE] | Active | Active | Active | 32 (≈ 57.7 µM) | 32 (≈ 57.7 µM) | Active | 64 (≈ 115 µM) | 32 (≈ 57.7 µM) | 32 (≈ 57.7 µM) | Active | Active | Active | Active | Active | Active | Active | Active | Active | 16 (≈ 28.9 µM) | Active | Activity (Clostridioides difficile [17]): Active; Activity (Clostridioides difficile [18]): Active; Activity (Clostridioides difficile [21]): Active; Activity (Clostridioides difficile [22]): Active; Activity (Clostridioides difficile [23]): Active; Activity (Clostridioides difficile [26]): Active; Activity (Clostridioides difficile [27]): Active |
| CCC[C@@H]1C[C@@H](C(=O)N[C@@H]([C@H]2O[C@H](SC)[C@H](O)[C@@H](O)[C@H]2O)[C@H](C)Cl)N(C)C1 [CLINDAMYCIN] | Active | Active | Active | 2 (≈ 4.71 µM) | > 256 | Active | > 256 | > 256 | > 256 | Active | – | Active | Active | Active | Active | Active | Active | Active | 2 (≈ 4.71 µM) | Active | Activity (Clostridioides difficile [18]): Active; Activity (Clostridioides difficile [28]): Active; Activity (Clostridioides difficile [21]): Active; Activity (Clostridioides difficile [22]): Active; Activity (Clostridioides difficile [23]): Active; Activity (Clostridioides difficile [29]): inactive; Activity (Clostridioides difficile [30]): inactive; Activity (Clostridioides difficile [26]): Active; Activity (Clostridioides difficile [31]): Active; Activity (Clostridioides difficile [27]): Active |
| COc1c(N2CCNC(C)C2)c(F)cc2c(=O)c(C(=O)O)cn(C3CC3)c12 (stereo not drawn) [GATIFLOXACIN] | Active | Active | – | 4 (≈ 10.7 µM) | < 2 | – | 32 (≈ 85.2 µM) | 32 (≈ 85.2 µM) | 64 (≈ 170 µM) | Active | Active | Active | Active | Active | Active | Active | Active | Active | 256 (≈ 682 µM) | Active | Activity (Clostridioides difficile [32]): Active; concentration at 96 h [33]: 76600 ng/g |
| C[C@H]1COc2c(N3CCN(C)CC3)c(F)cc3c(=O)c(C(=O)O)cn1c23.C[C@H]1COc2c(N3CCN(C)CC3)c(F)cc3c(=O)c(C(=O)O)cn1c23.O [LEVOFLOXACIN] | – | – | – | 8 | 8 | – | 256 | > 256 | 256 | – | – | – | – | – | – | – | – | – | > 256 | – | concentration at 96 h [34]: 58100 ng/g |
